# Test results from PMC4503722, “Novel Phenotypic Outcomes Identified for a Public Collection of Approved Drugs from a Publicly Accessible Panel of Assays” (PLoS ONE, 2015).
# Read-outs that look alike come from different tables or passages of the source.
# What was measured:
# Experiment in all cases: cells
# Type in all cases: cell-based
# HeLa cells = test system: HeLa cells;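 as to Hela CellCycMod PI 4N summarized IC50: value tracks stimulation of 4N DNA content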
# DLD-1 = test system: DLD-1
# SW480 = test system: SW480
# HCT116 = test system: HCT116
# [1] = test system: HCT116 cells treated with a GSK3β inhibitor
# Colo320 = test system: Colo320
# HT-29 = test system: HT-29
# RKO = test system: RKO
# SNU-C1 = test system: SNU-C1
# [2] = assay number 26, GSK3b inhibitor pretreated
compound,measurement,setting,value
Cl.O=C1[C@H]2CCCC[C@H]2C(=O)N1CCCCN1CCN(c2nsc3ccccc23)CC1 [NCGC00164567-02],Hela CellCycMod PI 2N IC50/EC50,"HeLa cells; assay number 14, 2N",> 10 µM
same,Hela CellCycMod PI S Phase IC50/EC50,"HeLa cells; assay number 15, S phase",> 10 µM
same,Hela CellCycMod PI 4N IC50/EC50,"HeLa cells; assay number 16, 4N",> 10 µM
same,Hela CellCycMod PI MI IC50/EC50,"HeLa cells; assay number 17, MI",> 10 µM
same,Hela CellCycMod PI Cell Number IC50/EC50,"HeLa cells; assay number 18, cell number",> 10 µM
same,Basal_Viability ATP DLD-1 IC50/EC50,DLD-1; assay number 23,8.238 µM
same,Basal_Viability ATP SW480 IC50/EC50,SW480; assay number 24,5.9082 µM
same,Basal_Viability ATP HCT116 IC50/EC50,"HCT116; assay number 25, basal",2.0649 µM
same,GSK3b inh pretreated_Viability ATP HCT116 IC50/EC50,[1]; [2],1.6729 µM
same,Basal_Viability ATP Colo 320 IC50/EC50,Colo320; assay number 27,13.2075 µM
same,Basal_Viability ATP HT-29 IC50/EC50,HT-29; assay number 28,2.0058 µM
same,Basal_Viability ATP RKO IC50/EC50,RKO; assay number 29,0.5459 µM
same,Basal_Viability ATP SNU-C1 IC50/EC50,SNU-C1; assay number 30,9.3713 µM
C1CCC(C(CC2CCCCN2)C2CCCCC2)CC1.O=C(O)/C=C\C(=O)O (stereo not drawn) [NCGC00018261-06],Basal_Viability ATP DLD-1 IC50/EC50,DLD-1,> 20 µM
same,Basal_Viability ATP SW480 IC50/EC50,SW480,5.7603 µM
same,Basal_Viability ATP HCT116 IC50/EC50,HCT116,> 20 µM
same,GSK3b inh pretreated_Viability ATP HCT116 IC50/EC50,[1],7.4207 µM
same,Basal_Viability ATP Colo 320 IC50/EC50,Colo320,8.8632 µM
same,Basal_Viability ATP HT-29 IC50/EC50,HT-29,6.8652 µM
same,Basal_Viability ATP RKO IC50/EC50,RKO,7.8491 µM
same,Basal_Viability ATP SNU-C1 IC50/EC50,SNU-C1,2.48 µM
CN1CCC(Nc2ncc3ncnc(Nc4ccc(F)c(Cl)c4)c3n2)CC1 [NCGC00161422-04],Hela CellCycMod PI 2N IC50/EC50,"HeLa cells; assay number 14, 2N",> 10 µM
same,Hela CellCycMod PI 4N IC50/EC50,"HeLa cells; assay number 16, 4N",> 10 µM
same,Hela CellCycMod PI MI IC50/EC50,"HeLa cells; assay number 17, MI",> 10 µM
same,Hela CellCycMod PI Cell Number IC50/EC50,"HeLa cells; assay number 18, cell number",> 10 µM
same,Basal_Viability ATP DLD-1 IC50/EC50,DLD-1; assay number 23,2.292 µM
same,Basal_Viability ATP SW480 IC50/EC50,SW480; assay number 24,2.346 µM
same,Basal_Viability ATP HCT116 IC50/EC50,"HCT116; assay number 25, basal",> 20 µM
same,GSK3b inh pretreated_Viability ATP HCT116 IC50/EC50,[1]; [2],3.384 µM
same,Basal_Viability ATP Colo 320 IC50/EC50,Colo320; assay number 27,11.6683 µM
same,Basal_Viability ATP HT-29 IC50/EC50,HT-29; assay number 28,4.003 µM
same,Basal_Viability ATP RKO IC50/EC50,RKO; assay number 29,3.167 µM
same,Basal_Viability ATP SNU-C1 IC50/EC50,SNU-C1; assay number 30,11.9566 µM
O=C(c1cc(O)c(O)c(O)c1)c1ccc(O)c(O)c1O [NCGC00249050-02],Hela CellCycMod PI 2N IC50/EC50,HeLa cells,> 10 µM
same,Hela CellCycMod PI 4N IC50/EC50,HeLa cells,> 10 µM
same,Hela CellCycMod PI Cell Number IC50/EC50,HeLa cells,> 10 µM
same,Hela CellCycMod PI MI IC50/EC50,HeLa cells,> 10 µM
same,Hela CellCycMod PI S Phase IC50/EC50,HeLa cells,> 10 µM
same,Basal_Viability ATP DLD-1 IC50/EC50,DLD-1,11.8874 µM
same,Basal_Viability ATP SW480 IC50/EC50,SW480,9.9516 µM
same,Basal_Viability ATP HCT116 IC50/EC50,HCT116,16.3036 µM
same,GSK3b inh pretreated_Viability ATP HCT116 IC50/EC50,[1],0.06911 µM
same,Basal_Viability ATP Colo 320 IC50/EC50,Colo320,9.382 µM
same,Basal_Viability ATP HT-29 IC50/EC50,HT-29,9.4494 µM
same,Basal_Viability ATP RKO IC50/EC50,RKO,0.1924 µM
same,Basal_Viability ATP SNU-C1 IC50/EC50,SNU-C1,12.767 µM
CCC(=O)c1ccc(O)cc1 [NCGC00018097-06],IC50,"HeLa cells; assay number 14, 2N, read-out: Hela CellCycMod PI 2N summarized IC50",> 10 µM
same,IC50,"HeLa cells; assay number 15, S phase, read-out: Hela CellCycMod PI S Phase summarized IC50",> 10 µM
same,IC50,"HeLa cells; assay number 16, 4N, read-out: Hela CellCycMod PI 4N summarized IC50",> 10 µM
same,IC50,"HeLa cells; assay number 17, MI, read-out: Hela CellCycMod PI MI summarized IC50",> 10 µM
same,IC50,"HeLa cells; assay number 18, cell number, read-out: Hela CellCycMod PI Cell Number summarized IC50",> 10 µM
same,IC50,"DLD-1; assay number 23, basal, read-out: Basal_Viability ATP DLD-1 summarized IC50",6.67 µM
same,IC50,"SW480; assay number 24, basal, read-out: Basal_Viability ATP SW480 summarized IC50",4.1 µM
same,IC50,"HCT116; assay number 25, basal, read-out: Basal_Viability ATP HCT116 summarized IC50",> 20 µM
same,IC50,"[1]; assay number 26, GSK3b inhibitor pretreated, read-out: GSK3b inh pretreated_Viability ATP HCT116 summarized IC50",6.25 µM
same,IC50,"Colo320; assay number 27, basal, read-out: Basal_Viability ATP Colo 320 summarized IC50",> 20 µM
same,IC50,"HT-29; assay number 28, basal, read-out: Basal_Viability ATP HT-29 summarized IC50",> 20 µM
same,IC50,"RKO; assay number 29, basal, read-out: Basal_Viability ATP RKO summarized IC50",7.8 µM
same,IC50,"SNU-C1; assay number 30, basal, read-out: Basal_Viability ATP SNU-C1 summarized IC50",> 20 µM
Nc1ccc(C(=O)Nc2ccccc2N)cc1 [NCGC00160373-02],"IC50/EC50, Basal_Viability ATP DLD-1 (assay number 23)",DLD-1; basal,> 20 µM
same,"IC50/EC50, Basal_Viability ATP SW480 (assay number 24)",SW480; basal,> 20 µM
same,"IC50/EC50, Basal_Viability ATP HCT116 (assay number 25)",HCT116; basal,> 6.6667 µM
same,"IC50/EC50, GSK3b inh pretreated_Viability ATP HCT116 (assay number 26)",[1]; GSK3b inh pretreated,12.8536 µM
same,"IC50/EC50, Basal_Viability ATP Colo 320 (assay number 27)",Colo320; basal,> 20 µM
same,"IC50/EC50, Basal_Viability ATP HT-29 (assay number 28)",HT-29; basal,> 20 µM
same,"IC50/EC50, Basal_Viability ATP RKO (assay number 29)",RKO; basal,> 20 µM
same,"IC50/EC50, Basal_Viability ATP SNU-C1 (assay number 30)",SNU-C1; basal,> 20 µM
Cc1ccc(C(=O)c2cc(O)c(O)c([N+](=O)[O-])c2)cc1 [NCGC00181767-03],Basal_Viability ATP DLD-1 IC50/EC50,"DLD-1; assay number 23, basal",6.142 µM
same,Basal_Viability ATP SW480 IC50/EC50,"SW480; assay number 24, basal",4.644 µM
same,Basal_Viability ATP HCT116 IC50/EC50,"HCT116; assay number 25, basal",2.292 µM
same,GSK3b inh pretreated_Viability ATP HCT116 IC50/EC50,[1]; [2],0.265 µM
same,Basal_Viability ATP Colo 320 IC50/EC50,"Colo320; assay number 27, basal",2.503 µM
same,Basal_Viability ATP HT-29 IC50/EC50,"HT-29; assay number 28, basal",> 20 µM
same,Basal_Viability ATP RKO IC50/EC50,"RKO; assay number 29, basal",1.876 µM
same,Basal_Viability ATP SNU-C1 IC50/EC50,"SNU-C1; assay number 30, basal",4.536 µM
CC[C@H]1CN2CCc3cc(OC)c(OC)cc3[C@@H]2C[C@@H]1C[C@H]1NCCc2cc(OC)c(OC)cc21 [NCGC00024379-16],Hela CellCycMod PI 2N IC50/EC50,"HeLa cells; assay number 14, 2N",> 10 µM
same,Hela CellCycMod PI 4N IC50/EC50,"HeLa cells; assay number 16, 4N",> 10 µM
same,Hela CellCycMod PI MI IC50/EC50,"HeLa cells; assay number 17, MI",0.9477 µM
same,Hela CellCycMod PI Cell Number IC50/EC50,"HeLa cells; assay number 18, cell number",0.03266 µM
same,Basal_Viability ATP DLD-1 IC50/EC50,"DLD-1; assay number 23, basal",0.01158 µM
same,Basal_Viability ATP SW480 IC50/EC50,"SW480; assay number 24, basal",0.001 µM
same,Basal_Viability ATP HCT116 IC50/EC50,"HCT116; assay number 25, basal",0.06147 µM
same,GSK3b inh pretreated_Viability ATP HCT116 IC50/EC50,[1]; [2],0.001 µM
same,Basal_Viability ATP Colo 320 IC50/EC50,"Colo320; assay number 27, basal",0.0221 µM
same,Basal_Viability ATP HT-29 IC50/EC50,"HT-29; assay number 28, basal",0.01634 µM
same,Basal_Viability ATP RKO IC50/EC50,"RKO; assay number 29, basal",0.00831 µM
same,Basal_Viability ATP SNU-C1 IC50/EC50,"SNU-C1; assay number 30, basal",0.00228 µM
